ChEMBL document CHEMBL1201862, “PubChem BioAssay data set” (2004)
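Dose response: 5 concentrations. Exposure: 48 h. Format: 96-well plates. Endpoint: linear interpolation; highest concentration if not reached. GI50 = concentration required for 50% inhibition of growth.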 The source made the active and inactive calls. Rule as the data show it: active = GI50 up to about 1.1 µM and inactive = higher.

How the values were obtained:
Assay in all cases: NCI anticancer screen, dose series, 48 h
HCC 2998 = system: HCC 2998
NCI-H460 = system: NCI-H460
T47D = system: T47D
UACC-257 = system: UACC-257
MDA-MB-435 = system: MDA-MB-435
MDA-N = system: MDA-N
UACC-62 = system: UACC-62
OVCAR-8 = system: OVCAR-8
Malme-3M = system: Malme-3M
TK-10 = system: TK-10
OVCAR-4 = system: OVCAR-4
DU-145 = system: DU-145
SK-MEL-5 = system: SK-MEL-5
Hs-578T = system: Hs-578T
NCI-H226 = system: NCI-H226
HL-60 = system: HL-60
COLO 205 = system: COLO 205
ACHN = system: ACHN
NCI/ADR-RES = system: NCI/ADR-RES
HCT-116 = system: HCT-116
RXF 393 = system: RXF 393
CCRF-CEM = system: CCRF-CEM
MOLT-4 = system: MOLT-4
SK-OV-3 = system: SK-OV-3
SNB-75 = system: SNB-75
HOP-62 = system: HOP-62
OVCAR-5 = system: OVCAR-5
HT-29 = system: HT-29
OVCAR-3 = system: OVCAR-3
PC-3 = system: PC-3
SK-MEL-2 = system: SK-MEL-2
M14 = system: M14
SR = system: SR
RPMI-8226 = system: RPMI-8226
A549 = system: A549
IGROV-1 = system: IGROV-1
786-0 = system: 786-0
U-251 = system: U-251
NCI-H522 = system: NCI-H522
BT-549 = system: BT-549
SN12C = system: SN12C
KM12 = system: KM12
EKVX = system: EKVX
LOX IMVI = system: LOX IMVI
MDA-MB-231 = system: MDA-MB-231
NCI-H23 = system: NCI-H23
SW-620 = system: SW-620
HCT-15 = system: HCT-15
SF-539 = system: SF-539
CAKI-1 = system: CAKI-1
SNB-19 = system: SNB-19
UO-31 = system: UO-31
MCF7 = system: MCF7
SF-295 = system: SF-295
HOP-92 = system: HOP-92
SK-MEL-28 = system: SK-MEL-28
A498 = system: A498
SF-268 = system: SF-268
K562 = system: K562

C[N+](C)(C)CC(=O)N/N=C(/CC1OC(=O)c2ccccc21)c1ccccc1O (configuration not stated)
GI50 (HCC 2998): 22.4 µM (inactive) | GI50 (NCI-H460): 24.4 µM (inactive) | GI50 (T47D): 25.6 µM (inactive) | GI50 (UACC-257): 24 µM (inactive) | GI50 (MDA-MB-435): 30.6 µM (inactive) | GI50 (MDA-N): 54.1 µM (inactive) | GI50 (UACC-62): 22.9 µM (inactive) | GI50 (OVCAR-8): 29.2 µM (inactive) | GI50 (Malme-3M): 59.8 µM (inactive) | GI50 (TK-10): 31.9 µM (inactive) | GI50 (OVCAR-4): 45.1 µM (inactive) | GI50 (DU-145): 34.7 µM (inactive) | GI50 (SK-MEL-5): 46.6 µM (inactive) | GI50 (Hs-578T): 60.3 µM (inactive) | GI50 (NCI-H226): 20 µM (inactive) | GI50 (HL-60): 16.2 µM (inactive) | GI50 (COLO 205): 68.2 µM (inactive) | GI50 (ACHN): 20.3 µM (inactive) | GI50 (NCI/ADR-RES): 19.3 µM (inactive) | GI50 (HCT-116): 28.4 µM (inactive) | GI50 (RXF 393): 28 µM (inactive) | GI50 (CCRF-CEM): 19 µM (inactive) | GI50 (MOLT-4): 16.2 µM (inactive) | GI50 (SK-OV-3): 35.2 µM (inactive) | GI50 (SNB-75): 39.1 µM (inactive) | GI50 (HOP-62): 35.4 µM (inactive) | GI50 (OVCAR-5): > 100 µM (inactive) | GI50 (HT-29): 44.1 µM (inactive) | GI50 (OVCAR-3): 62.4 µM (inactive) | GI50 (PC-3): 60.5 µM (inactive) | GI50 (SK-MEL-2): 72.8 µM (inactive) | GI50 (M14): > 100 µM (inactive) | GI50 (SR): 14.3 µM (inactive) | GI50 (RPMI-8226): 5.94 µM (inactive) | GI50 (A549): 76.6 µM (inactive) | GI50 (IGROV-1): 37.8 µM (inactive) | GI50 (786-0): 25.8 µM (inactive) | GI50 (U-251): 22 µM (inactive) | GI50 (NCI-H522): 46.5 µM (inactive) | GI50 (BT-549): 25.1 µM (inactive) | GI50 (SN12C): 49 µM (inactive) | GI50 (KM12): 26.7 µM (inactive) | GI50 (EKVX): 62.4 µM (inactive) | GI50 (LOX IMVI): 17.4 µM (inactive) | GI50 (MDA-MB-231): 95.9 µM (inactive) | GI50 (NCI-H23): 26.5 µM (inactive) | GI50 (SW-620): 33.4 µM (inactive) | GI50 (HCT-15): 36.2 µM | GI50 (SF-539): 20.3 µM (inactive) | GI50 (CAKI-1): 34.1 µM (inactive) | GI50 (SNB-19): 46.8 µM (inactive) | GI50 (UO-31): 24.2 µM (inactive) | GI50 (MCF7): 54.8 µM (inactive) | GI50 (SF-295): 42.4 µM (inactive) | GI50 (HOP-92): 29.7 µM (inactive) | GI50 (SK-MEL-28): 29.2 µM (inactive) | GI50 (A498): 38.5 µM (inactive) | GI50 (SF-268): 81.8 µM (inactive)

CC(C)OP(=O)(OC(C)C)C(Nc1cccc(C(F)(F)F)c1)c1ccccc1 (configuration not stated)
GI50 (HCC 2998): 55.6 µM (inactive) | GI50 (NCI-H460): 24 µM (inactive) | GI50 (T47D): 35.7 µM (inactive) | GI50 (UACC-257): 39.1 µM (inactive) | GI50 (MDA-MB-435): 41.6 µM (inactive) | GI50 (MDA-N): 41 µM (inactive) | GI50 (UACC-62): 69.8 µM (inactive) | GI50 (OVCAR-8): 59.4 µM (inactive) | GI50 (Malme-3M): 32.3 µM (inactive) | GI50 (TK-10): > 100 µM (inactive) | GI50 (OVCAR-4): 54.8 µM (inactive) | GI50 (DU-145): 77.6 µM (inactive) | GI50 (SK-MEL-5): 22.4 µM (inactive) | GI50 (Hs-578T): 75.3 µM (inactive) | GI50 (NCI-H226): 60 µM (inactive) | GI50 (HL-60): 14.7 µM (inactive) | GI50 (COLO 205): 25.5 µM (inactive) | GI50 (ACHN): 35.6 µM (inactive) | GI50 (NCI/ADR-RES): 32.7 µM (inactive) | GI50 (HCT-116): 17.1 µM (inactive) | GI50 (RXF 393): 49.5 µM (inactive) | GI50 (CCRF-CEM): 31 µM (inactive) | GI50 (MOLT-4): 13.7 µM (inactive) | GI50 (SK-OV-3): > 100 µM (inactive) | GI50 (SNB-75): > 100 µM (inactive) | GI50 (HOP-62): 69.7 µM (inactive) | GI50 (OVCAR-5): > 100 µM (inactive) | GI50 (HT-29): 21.6 µM (inactive) | GI50 (OVCAR-3): 35.6 µM (inactive) | GI50 (PC-3): 37.2 µM (inactive) | GI50 (SK-MEL-2): 50.7 µM (inactive) | GI50 (M14): 38.5 µM (inactive) | GI50 (SR): 21.9 µM (inactive) | GI50 (RPMI-8226): 12.7 µM (inactive) | GI50 (A549): 30.5 µM (inactive) | GI50 (IGROV-1): 79.4 µM (inactive) | GI50 (786-0): 70.3 µM (inactive) | GI50 (U-251): 58.5 µM (inactive) | GI50 (NCI-H522): 20.2 µM (inactive) | GI50 (BT-549): 17.7 µM (inactive) | GI50 (SN12C): 37.7 µM (inactive) | GI50 (KM12): 40.6 µM (inactive) | GI50 (EKVX): 33.3 µM (inactive) | GI50 (LOX IMVI): 39.4 µM (inactive) | GI50 (MDA-MB-231): 45.9 µM (inactive) | GI50 (NCI-H23): 55.6 µM (inactive) | GI50 (SW-620): > 10 µM (inactive) | GI50 (HCT-15): 55.5 µM | GI50 (SF-539): > 100 µM (inactive) | GI50 (CAKI-1): 18.7 µM (inactive) | GI50 (SNB-19): 71.6 µM (inactive) | GI50 (UO-31): 17.9 µM (inactive) | GI50 (MCF7): 46.9 µM (inactive) | GI50 (SF-295): 47.9 µM (inactive) | GI50 (HOP-92): 17.1 µM (inactive) | GI50 (K562): 23.4 µM (inactive) | GI50 (SK-MEL-28): 93.5 µM (inactive) | GI50 (A498): > 100 µM (inactive) | GI50 (SF-268): > 100 µM (inactive)
